Source: patent US20240100079A1, “METHODS AND COMPOSITIONS FOR REGENERATING HAIR CELLS IN THE INNER EAR OF ADULT MAMMALS” (Massachusetts Eye and Ear Infirmary, priority 2021, published 2024)

Key:
[1] = test system: cultured adult mouse cochlea; assay: Hair cell regeneration in cultured adult wild-type mouse cochlea, reprogramming followed by ad-Atoh1 infection; type: cell-based; details: for reprogramming and regeneration of hair cells with another HDAC inhibitor in the cocktail instead of VPA: TSA 82.5 nM, SAHA 2 μM, Belinostat 1 μM with LiCl, FSK, siFIR, siMxi1, after Ad-Atoh1 infection
Description: Different from the neonatal cochlear culture method, in which the cochleae were disassociated from the bone, adult mouse whole cochleae (4-6 weeks old) were dissected with the bone attached. The bulla was first removed from the skull and dipped in 75% ethanol for 3 minutes before being placed in HBSS. The vestibular region was also removed. Under a dissecting microscope, the middle ear, vessels and the debris were removed from the bulla. The bone covering the apical turn was removed, and round window and oval window membranes were opened to allow media exchange with the cochlear fluids. The ligament portion and Reissner's membrane at each end of the cochlea were also removed to facilitate the access of medium to the sensory epithelial region. The cochleae were maintained in DMEM/F12 (Invitrogen) supplemented with N2 and B27 (both from Invitrogen) for 14-18 days. Ad-Atoh1 ad-Atoh1-mCherry adenoviruses were purchased from the SignaGen Laboratories, Rockville, MD, with titers of 6×10^10 pfu/ml.
In the rtTA/tet-Myc/tet-NICD mouse model, cochleae were treated with Dox (Sigma, 2 μg/ml final concentration); In the Sox2/tdT/rtTA/tet-Myc/tet-NICD mouse model, cochleae were treated with Dox (Sigma, 2 μg/ml final concentration) and 4-Hydroxytamoxifen (Tm, Sigma) (20 ng/ml); in the rtTA/tet-Myc and rtTA/tet-Myc/Atoh1-GFP mouse models, cochleae were treated with Dox (Sigma, 2 μg/ml final concentration) and VPA (2 mM); in the Sox2/tdT/rtTA/tet-Myc mouse model, cochleae were treated with 4-Hydroxytamoxifen (20 ng/ml), Dox (Sigma, 2 μg/ml) and VPA (Sigma, 2 mM); in the rtTA/tet-NICD mouse model, cochleae were treated with Dox (Sigma, 2 μg/ml final concentration), LiCl (Sigma, 8 mM), FSK (Tocris Bioscience, 20 μM), siFIR (Santa Cruz Bio-technology, 0.02 μM), and siMxi1 (Santa Cruz Bio-technology, 0.02 μM); in the Sox2/tdT/rtTA/tet-NICD mouse model, cochleae were treated with 4-Hydroxytamoxifen (20 ng/ml), Dox (Sigma, 2 μg/ml final concentration), LiCl (8 mM), Forskolin (FSK) (20 μM), siFIR (Puf 60, Gene ID: 67959) […], and siMxi1 (Gene ID: 17859) (0.02 μM); in the Atoh1-GFP mouse model, cochleae were treated with VPA (2 mM), LiCl (8 mM), FSK […], siFIR (0.02 μM), and siMxi1 (0.02 μM) for 4 days, followed by ad-Atoh1 (6×10^10 pfu/ml) infection overnight. siRNAs were delivered following the manufacturer's instructions (Polyplus-transfection; 89129-920). In cultured adult mouse cochleae, they were treated with HDAC inhibitor, Belinostat (1 μM, Medchemexpress), Trichostatin A (TSA)(82.5 nM, Medchemexpress), Vorinostat (SAHA)(2 μM; Medchemexpress), and Myc siRNA Fbxw7 (0.02 μM, Santa Cruz Biotechnology). The controls were cultured adult cochleae of the same genotype treated with vehicle (sterile water with 0.1% DMSO) plus ad-Atoh1. […]

[2] = test system: adult wild-type mouse utricle; assay: Neomycin damage of cultured adult mouse utricle; type: cell-based; details: neomycin 4 mM for 5 days, vs untreated utricles
Description: Whole utricles were dissected from 4-week-old mice and cultured free-floating. Otoconia were removed using a gentle stream of phosphate-buffered saline (PBS) ejected from a 25G needle and syringe. Utricles were cultured in 1000 μL of media in untreated 24-well flat bottom plates. All cultures were maintained at 37° C. in 5% CO2/95% air.
Culture media consisted of Dulbecco's Modified Eagle's Medium/F12 (DMEM/F12, Invitrogen) with B27 and N2 supplement. Neomycin sulfate stock (10 mg/mL in 0.9% NaCl, from Sigma Aldrich) was diluted in culture media to 4 mM. Valproic acid (VPA) from Sigma was included at 2 mM, and siRNAs from Santa Cruz were included at 0.02 μM.

| Molecule | reprogramming and regeneration of hair cells with another HDAC inhibitor in the cocktail instead of VPA [1] | other results |
| --- | --- | --- |
| CC(/C=C/C(=O)NO)=C\[C@@H](C)C(=O)c1ccc(N(C)C)cc1 [TSA, (2E,4E,6R)-7-(4-(Dimethylamino)phenyl)-N-hydroxy-4,6-dimethyl-7-oxo-2,4-heptadienamide] | sufficient to induce reprogramming and efficient regeneration of hair cells |  |
| O=C(CCCCCCC(=O)Nc1ccccc1)NO [SAHA, N-Hydroxy-N′-phenyloctanediamide] | sufficient to induce reprogramming and efficient regeneration of hair cells |  |
| CCCC(CCC)C(=O)[O-].[Na+] [VPA, Sodium 2-propylpentanoate] |  | HC (MYO7A+) regeneration ([1]; cultured adult WT cochlea, treatment followed by Ad-Atoh1 infection (FIG. 7B)): did not lead to HC (MYO7A) |
| O=C(/C=C/c1cccc(S(=O)(=O)Nc2ccccc2)c1)NO [Belinostat, belinostat] | sufficient to induce reprogramming and efficient regeneration of hair cells |  |
| Neomycin sulfate |  | utricle hair cells (MYO7A) after neomycin [2]: decreased total numbers of utricle HC; utricle hair cells (MYO7A) after neomycin ([2]; listed as Neomycin): loss of hair cells |
